According to patent US9174980B2, “Heterocyclic compounds as inhibitors of leukotriene production” (Boehringer Ingelheim International GmbH, priority 2012, dated 2015):

Tests used:
[1] = test system: synthesis of LTB4 in human whole blood; assay: Human whole blood assay (calcimycin-stimulated LTB4 synthesis); format: cell-based; details: Homo sapiens; read-out: Human Whole Blood LTB4 Assay for FLAP (IC50 nM)
Procedure: Compounds are additionally tested in a human whole blood assay to determine their ability to inhibit the synthesis of LTB4 in a cellular system. Compounds are combined with heparinized human whole blood and incubated for 15 minutes at 37° C. Calcimycin (20 μM final, prepared in phosphate-buffered saline, pH 7.4) is then added and the mixture is incubated for another 30 minutes at 37° C. The samples are centrifuged for 5 min at low speed (1500×g) and the plasma layer is removed. Plasma LTB4 concentrations are then measured using an antibody-based homogenous time-resolved fluorescence method (CisBio, Bedford, Mass.).

[2] = target: T1, recombinant human FLAP protein (Homo sapiens, UniProt P20292); assay: FLAP binding assay (Scintillation Proximity Assay, displacement of [125I]L-691,831); details: read-out: Human FLAP SPA Binding (IC50 nM)
T1 construct: made in house; host or cells: Sf9 insect cells (membrane fraction, 100,000 x g pellet)
T1 sequence (P20292 1-161): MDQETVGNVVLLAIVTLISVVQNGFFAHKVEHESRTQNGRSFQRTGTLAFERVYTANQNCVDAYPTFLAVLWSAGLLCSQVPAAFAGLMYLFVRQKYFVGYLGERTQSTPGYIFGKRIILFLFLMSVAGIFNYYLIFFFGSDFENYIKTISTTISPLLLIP
Procedure: Compounds are assessed for the ability to bind to FLAP in a binding assay that measures compound-specific displacement of an iodinated (^125I) FLAP inhibitor via a Scintillation Proximity Assay format (adapted from S. Charleson et al., Mol. Pharmacol., 1992, 41, 873-879).
Cell pellets produced from sf9 insect cells expressing recombinant human FLAP protein are resuspended in buffer A [15 mM Tris-HCl (pH 7.5), 2 mM MgCl2, 0.3 mM EDTA, 1 mM PMSF]. The cells are lysed with a Dounce homogenizer and the material is centrifuged at 10,000×g for 10 minutes. The supernatant is then collected and centrifuged at 100,000×g for 60 minutes. To prepare membrane protein for an assay, an aliquot of the 100,000×g pellet is resuspended in 1 ml of buffer A, Dounce homogenized, and finally subjected to polytron mixing (30 seconds). Membrane protein (25 μl, 5 μg) is mixed with WGA SPA beads (Amersham) and stirred for 1 h. To an assay plate (Perkin Elmer FlexiPlate) is added 25 μl of test compound prepared in Binding buffer [100 mM Tris (pH 7.5), 140 mM NaCl, 5% glycerol, 2 mM EDTA, 0.5 mM TCEP, 0.05% Tween 20], 25 μl of [^125I]L-691,831 (an iodinated analog of MK-591, Charleson et al. Mol. Pharmacol., 41, 873-879, 1992) and finally 50 μl of the bead/protein mixture. (final concentrations: beads, 200 μg/well; protein, 5 μg/well; [^125I] probe, 0.08 nM/well (17 nCi/well). The plates are shaken for 2 h before reading on a Microbeta plate reader. Non-specific binding is determined by the addition of 10 μM cold L-691,831 compound.

Row | IC50 [1] [nM] | IC50 [2] [nM] | SMILES
1 | > 5000 | 36 | COc1cncc(-c2ccc(C(c3ncc(-c4ccc(CO)nc4)s3)C(C)C)cc2)c1 (stereo not drawn) [Example 25, [5-(2-{1-[4-(5-methoxypyridin-3-yl)phenyl]-2-methylpropyl}-1,3-thiazol-5-yl)pyridin-2-yl]methanol]
2 | 39 | 4.6 | CN(C)CCn1cc(-c2cc([C@@](C)(c3ccc(-c4cnc(N)nc4)cc3)C3CC3)no2)cn1 [Example 26, 5-{4-[(1R)-1-cyclopropyl-1-(5-{1-[2-(dimethylamino)ethyl]-1H-pyrazol-4-yl}-1,2-oxazol-3-yl)ethyl]phenyl}pyrimidin-2-amine]
3 | 1800 | 20 | COc1cncc(-c2ccc(C(C)(c3cn(Cc4ccccn4)c4ccccc34)C(C)C)cc2)c1 (stereo not drawn) [Example 27, 3-{2-[4-(5-methoxypyridin-3-yl)phenyl]-3-methylbutan-2-yl}-1-(pyridin-2-ylmethyl)-1H-indole]
4 | 610 | 3.3 | CC(C)C(C)(c1ccc(-c2cnc(N)nc2)cc1)c1cn(Cc2ccccn2)c2ccccc12 (stereo not drawn) [Example 28, 5-(4-{3-methyl-2-[1-(pyridin-2-ylmethyl)-1H-indol-3-yl]butan-2-yl}phenyl)pyrimidin-2-amine]
5 | 2700 | 5.1 | CC(C)C(C)(c1ccc(-c2cnc(N)nc2)cc1)c1cn(Cc2ccc(Cl)cc2)c2ccccc12 (stereo not drawn) [Example 29, 5-(4-{2-[1-(4-chlorobenzyl)-1H-indol-3-yl]-3-methylbutan-2-yl}phenyl)pyrimidin-2-amine]
6 | 1200 | 330 | CN(C)CCn1cc(-c2cc([C@](C)(c3ccc(-c4cnc(N)nc4)cc3)C3CC3)no2)cn1 [Example 30, 5-{4-[(1S)-1-cyclopropyl-1-(5-{1-[2-(dimethylamino)ethyl]-1H-pyrazol-4-yl}-1,2-oxazol-3-yl)ethyl]phenyl}pyrimidin-2-amine]
7 | 1200 | 7.1 | CC(C)C(C)(c1ccc(-c2cnc(N)nc2)cc1)c1cn(C)c2ccc(F)cc12 (stereo not drawn) [Example 31, 5-{4-[2-(5-fluoro-1-methyl-1H-indol-3-yl)-3-methylbutan-2-yl]phenyl}pyrimidin-2-amine]
8 | 650 | 3.3 | CC(C)C(C)(c1ccc(-c2cnc(N)nc2)cc1)c1cn(C)c2ccccc12 (stereo not drawn) [Example 32, 5-{4-[3-methyl-2-(1-methyl-1H-indol-3-yl)butan-2-yl]phenyl}pyrimidin-2-amine]
9 | > 5000 | 290 | Nc1ncc(-c2ccc(C3(c4c[nH]c5ccccc45)CCOCC3)cc2)cn1 [Example 33, 5-{4-[4-(1H-indol-3-yl)tetrahydro-2H-pyran-4-yl]phenyl}pyrimidin-2-amine]
10 | 460 | 3.4 | CC(C)C(C)(c1ccc(-c2cnc(N)nc2)cc1)c1cn(Cc2ccc(Cl)cc2)c2ncccc12 (stereo not drawn) [Example 34, 5-(4-{2-[1-(4-chlorobenzyl)-1H-pyrrolo[2,3-b]pyridin-3-yl]-3-methylbutan-2-yl}phenyl)pyrimidin-2-amine]
11 | > 5000 | 150 | Nc1ncc(-c2ccc(C3(c4cn(Cc5ccccn5)c5ccccc45)CCOCC3)cc2)cn1 [Example 35, 5-(4-{4-[1-(pyridin-2-ylmethyl)-1H-indol-3-yl]tetrahydro-2H-pyran-4-yl}phenyl)pyrimidin-2-amine]
12 | 1900 | 1.8 | CC(C)C(C)(c1ccc(OCc2ccccn2)cc1)c1cn(C)c2cc(C(=O)O)ccc12 (stereo not drawn) [Example 36, 23-[1,2-dimethyl-1-[4-(2-pyridylmethoxy)phenyl]propyl]-1-methyl-indole-6-carboxylic acid]
13 | 150 | 1.4 | CC(C)C(C)(c1ccc(OCc2ccccn2)cc1)c1cn(C)c2cc(C(=O)Nc3cccnn3)ccc12 (stereo not drawn) [Example 37, 3-[1,2-dimethyl-1-[4-(2-pyridylmethoxy)phenyl]propyl]-1-methyl-N-pyridazin-3-yl-indole-6-carboxamide]
14 | 240 | 1.4 | CC(C)C(C)(c1ccc(OCc2ccccn2)cc1)c1cn(C)c2cc(C(N)=O)ccc12 (stereo not drawn) [Example 38, 3-[1,2-dimethyl-1-[4-(2-pyridylmethoxy)phenyl]propyl]-1-methyl-indole-6-carboxamide]
15 | 290 | 3.3 | CC(C)C(C)(c1ccc(-c2cnc(N)nc2)cc1)c1cn(C)c2ncccc12 (stereo not drawn) [Example 39, 5-{4-[3-methyl-2-(1-methyl-1H-pyrrolo[2,3-b]pyridin-3-yl)butan-2-yl]phenyl}pyrimidin-2-amine]
16 | 540 | 2.6 | CC(C)C(C)(c1ccc(-c2cnc(N)nc2)cc1)c1cn(Cc2ccccn2)c2cccc(F)c12 (stereo not drawn) [Example 40, 5-(4-{2-[4-fluoro-1-(pyridin-2-ylmethyl)-1H-indol-3-yl]-3-methylbutan-2-yl}phenyl)pyrimidin-2-amine]
17 | 1300 | 3.4 | CC(C)C(C)(c1ccc(-c2cnc(N)nc2)cc1)c1cn(Cc2ccccn2)c2c(F)cccc12 (stereo not drawn) [Example 41, 5-(4-{2-[7-fluoro-1-(pyridin-2-ylmethyl)-1H-indol-3-yl]-3-methylbutan-2-yl}phenyl)pyrimidin-2-amine]
18 | 170 | 2.5 | CC(C)C(C)(c1ccc(-c2cnc(N)nc2)cc1)c1c[nH]c2ccccc12 (stereo not drawn) [Example 42, 5-{4-[2-(1H-indol-3-yl)-3-methylbutan-2-yl]phenyl}pyrimidin-2-amine]
19 | 1500 | 30 | Cc1cn(C(C)(c2ccc(-c3cnc(N)nc3)cc2)C(C)C)c2ccccc12 (stereo not drawn) [Example 43, 5-{4-[3-methyl-2-(3-methyl-1H-indol-1-yl)butan-2-yl]phenyl}pyrimidin-2-amine]
20 | > 5000 | 21 | Cn1nc(C(c2ccc(-c3cnc(N)nc3)cc2)C(C)(C)C)c2ccccc21 (stereo not drawn) [Example 44, 5-[4-[2,2-dimethyl-1-(1-methylindazol-3-yl)propyl]phenyl]pyrimidin-2-amine]
21 | 260 | 1.4 | COc1cccc2c(C(C)(c3ccc(-c4cnc(N)nc4)cc3)C(C)C)c[nH]c12 (stereo not drawn) [Example 45, 5-{4-[2-(7-methoxy-1H-indol-3-yl)-3-methylbutan-2-yl]phenyl}pyrimidin-2-amine]
22 | > 5000 | 4.6 | CC(C)C(C)(c1ccc(-c2cnc(N)nc2)cc1)c1cn(CC(=O)O)c2ncccc12 (stereo not drawn) [Example 47, (3-{2-[4-(2-aminopyrimidin-5-yl)phenyl]-3-methylbutan-2-yl}-1H-pyrrolo[2,3-b]pyridin-1-yl)acetic acid]
23 | 810 | 2 | CC(C)C(C)(c1ccc(-c2cnc(N)nc2)cc1)c1cn(Cc2ccccn2)c2cc(F)ccc12 (stereo not drawn) [Example 49, 5-(4-{2-[6-fluoro-1-(pyridin-2-ylmethyl)-1H-indol-3-yl]-3-methylbutan-2-yl}phenyl)pyrimidin-2-amine]
24 | > 5000 | 260 | COc1cccc2c1c(C(C)(c1ccc(-c3cnc(N)nc3)cc1)C(C)C)cn2Cc1ccccn1 (stereo not drawn) [Example 50, 5-(4-{2-[4-methoxy-1-(pyridin-2-ylmethyl)-1H-indol-3-yl]-3-methylbutan-2-yl}phenyl)pyrimidin-2-amine]
25 | 840 | 2.7 | COc1cccc2c(C(C)(c3ccc(-c4cnc(N)nc4)cc3)C(C)C)cn(Cc3ccccn3)c12 (stereo not drawn) [Example 51, 5-(4-{2-[7-methoxy-1-(pyridin-2-ylmethyl)-1H-indol-3-yl]-3-methylbutan-2-yl}phenyl)pyrimidin-2-amine]
26 | 2200 | 3.1 | CC(C)C(C)(c1ccc(-c2cnc(N)nc2)cc1)c1cn(CCN2CCN(C)CC2)c2ccccc12 (stereo not drawn) [Example 52, 5-[4-(3-methyl-2-{1-[2-(4-methylpiperazin-1-yl)ethyl]-1H-indol-3-yl}butan-2-yl)phenyl]pyrimidin-2-amine]
27 | > 5000 | 400 | COC(c1ccc(-c2cnc(N)nc2)cc1)(c1nn(C)c2ccccc12)C(C)(C)C (stereo not drawn) [Example 53, 5-[4-[1-methoxy-2,2-dimethyl-1-(1-methylindazol-3-yl)propyl]phenyl]pyrimidin-2-amine]
